From patent US8648066B2 (Exelixis, Inc., priority 2009, dated 2014)

Assays:
mTOR/GbL/Raptor (mTORC1) = mTOR/GbL/Raptor (mTORC1) (Homo sapiens, UniProt P42345); experiment: mTOR/GbL/Raptor (mTORC1) ELISA assay; format: biochemical; conditions: phosphorylation of 4E-BP1; 0.2 nM mTORC1, 10 μM ATP; read-out: IC50 in this assay (mTORC1 ELISA)
Procedure, shortened: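 ELISA read-out: phospho-4E-BP1 captured on Ni-chelate plates and detected with anti-phospho antibody plus HRP-anti-IgG luminescence. The kinase step ran 120 min at ambient temperature with 0.2 nM human mTORC1, 10 µM ATP, 50 nM His-4E-BP1, 10 mM MnCl2, pH 7.2 HEPES.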

PI3Kα = PI3Kα (Homo sapiens, UniProt P42336); experiment: PI3K biochemical assay (luciferase-luciferin ATP consumption); conditions: 1.5 nM enzyme, 1 μM ATP, 10 μM PIP2; read-out: IC50 for PI3Kα in this assay
Sequence of PI3Kα (P42336 whole entry, species assumed): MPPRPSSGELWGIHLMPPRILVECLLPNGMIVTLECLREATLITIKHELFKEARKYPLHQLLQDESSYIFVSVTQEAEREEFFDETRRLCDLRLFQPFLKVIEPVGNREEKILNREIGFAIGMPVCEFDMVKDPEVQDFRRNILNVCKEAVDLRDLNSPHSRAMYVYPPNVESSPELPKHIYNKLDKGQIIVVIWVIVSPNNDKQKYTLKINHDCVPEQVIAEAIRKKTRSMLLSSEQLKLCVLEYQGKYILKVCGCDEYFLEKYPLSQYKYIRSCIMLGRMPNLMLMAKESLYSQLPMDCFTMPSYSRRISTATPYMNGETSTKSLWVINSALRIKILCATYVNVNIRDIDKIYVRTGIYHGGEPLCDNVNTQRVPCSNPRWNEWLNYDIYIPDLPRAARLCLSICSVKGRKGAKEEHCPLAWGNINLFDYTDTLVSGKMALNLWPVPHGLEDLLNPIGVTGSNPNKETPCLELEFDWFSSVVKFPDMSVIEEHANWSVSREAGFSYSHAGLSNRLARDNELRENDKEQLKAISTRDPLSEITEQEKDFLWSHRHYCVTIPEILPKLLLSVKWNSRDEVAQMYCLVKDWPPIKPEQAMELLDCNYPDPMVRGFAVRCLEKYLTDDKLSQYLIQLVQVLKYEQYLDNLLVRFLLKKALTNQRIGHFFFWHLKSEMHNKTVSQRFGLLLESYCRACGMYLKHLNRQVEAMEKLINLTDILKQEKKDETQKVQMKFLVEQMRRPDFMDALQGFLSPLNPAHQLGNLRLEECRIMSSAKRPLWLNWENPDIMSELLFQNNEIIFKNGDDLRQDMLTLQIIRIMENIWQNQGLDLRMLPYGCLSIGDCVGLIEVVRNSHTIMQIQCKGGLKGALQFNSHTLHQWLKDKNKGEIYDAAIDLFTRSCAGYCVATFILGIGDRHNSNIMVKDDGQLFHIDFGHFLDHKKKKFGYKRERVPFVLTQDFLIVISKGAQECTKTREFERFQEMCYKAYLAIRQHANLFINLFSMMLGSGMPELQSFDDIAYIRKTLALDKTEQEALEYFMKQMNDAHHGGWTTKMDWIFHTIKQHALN
Sequence of PI3Kα (P27986 whole entry partner, species assumed): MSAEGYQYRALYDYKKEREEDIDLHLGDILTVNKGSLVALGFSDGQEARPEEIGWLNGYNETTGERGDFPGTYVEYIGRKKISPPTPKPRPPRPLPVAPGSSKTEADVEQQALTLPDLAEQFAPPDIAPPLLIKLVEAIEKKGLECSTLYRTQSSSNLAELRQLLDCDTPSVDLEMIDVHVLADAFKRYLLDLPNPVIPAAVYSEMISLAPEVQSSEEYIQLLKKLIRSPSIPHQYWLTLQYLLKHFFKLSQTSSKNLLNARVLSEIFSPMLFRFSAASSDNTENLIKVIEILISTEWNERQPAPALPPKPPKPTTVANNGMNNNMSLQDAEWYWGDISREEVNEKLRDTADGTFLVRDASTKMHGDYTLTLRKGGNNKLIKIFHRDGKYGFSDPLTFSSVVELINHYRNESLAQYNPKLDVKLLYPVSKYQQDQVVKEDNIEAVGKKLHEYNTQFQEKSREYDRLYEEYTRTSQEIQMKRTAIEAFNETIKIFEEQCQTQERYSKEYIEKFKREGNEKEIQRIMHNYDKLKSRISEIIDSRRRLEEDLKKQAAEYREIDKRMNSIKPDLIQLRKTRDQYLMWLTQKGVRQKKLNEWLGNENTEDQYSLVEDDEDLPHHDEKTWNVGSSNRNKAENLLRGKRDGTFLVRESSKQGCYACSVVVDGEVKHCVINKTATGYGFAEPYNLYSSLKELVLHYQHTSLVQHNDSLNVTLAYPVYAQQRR
Method: PI3Kα activity is measured as the percent of ATP consumed following the kinase reaction using luciferase-luciferin-coupled chemiluminescence. Reactions were conducted in 384-well white, medium binding microtiter plates (Greiner). Kinase reactions were initiated by combining test compounds, ATP, substrate (PIP2), and kinase in a 20 μL volume in a buffer solution. The standard PI3Kalpha assay buffer is composed 50 mM Tris, pH 7.5, 1 mM EGTA, 10 mM MgCl2, 1 mM DTT and 0.03% CHAPS. The standard assay concentrations for enzyme, ATP, and substrate are 1.5 nM, 1 μM, and 10 μM, respectively. The reaction mixture was incubated at ambient temperature for approximately 2 h. Following the kinase reaction, a 10 μL aliquot of luciferase-luciferin mix (Promega Kinase-Glo) was added and the chemiluminescence signal measured using a Victor2 plate reader (Perkin Elmer). Total ATP consumption was limited to 40-60% and IC50 values of control compounds correlate well with literature references. Substituting PI3Kα with PI3Kβ, PI3Kγ, or PI3Kδ, the inhibitory activity of the compounds for the other isoforms of I3K were measured.

c1ccc2c(N3CCOc4ccc(-c5ccc6nc(C7CCCC7)[nH]c6c5)cc4C3)ccnc2c1 [Example 198, 7-(2-cyclopentyl-1H-benzimidazol-6-yl)-4-quinolin-4-yl-2,3,4,5-tetrahydro-1,4-benzoxazepine]
IC50 (mTOR/GbL/Raptor (mTORC1)): ≥ 2000 nM | IC50 (PI3Kα): ≥ 2000 nM

c1ccc(-c2nc(N3CCOc4ccc(-c5ccc6nc[nH]c6c5)cc4C3)c3ccccc3n2)cc1 [Example 232, 7-(1H-benzimidazol-6-yl)-4-(2-phenylquinazolin-4-yl)-2,3,4,5-tetrahydro-1,4-benzoxazepine]
IC50 (mTOR/GbL/Raptor (mTORC1)): ≥ 2000 nM | IC50 (PI3Kα): 1000 to 2000 nM
